According to patent US11467161B2, “Biomarkers of therapeutic responsiveness” (Meso Scale Technologies, LLC., priority 2013, dated 2022):
Where two headings read alike, the source gives them in different places.

Assays:
A375 xenograft = assay: Biomarker levels in A375 control melanoma xenograft tumor extracts (MSD multiplex immunoassay); type: in vivo, mice
Procedure: (§1) A panel of biomarkers was measured in Melanoma and RCC xenograft tissue extracts from mice, described in Table 4. Xenografts were generated using the listed melanoma and RCC cell lines, and tumors harvested and extracted following the indicated treatments. SKMEL5 cells were used with or without transfection to express constitutively active GSK3β. A375 cells were used with or without transfection to express GSK3β specific shRNA under a doxycycline-controlled promoter.
(§2) Multiplex immunoassay kits were used for detection of total and/or phosphorylated biomarkers (supplied by Meso Scale Discovery, a division of Meso Scale Diagnostics, LLC, Rockville, Md.). Levels of each biomarker were determined by calibration of the assays with were either purified calibrator proteins or using control cell lysates from appropriately treated cultured cell lines (e.g., cells subjected to conditions known to induce or reduce levels of a specific biomarker). Calibration curves were derived by testing serial dilutions of the calibrator lysates or purified proteins. Levels of biomarkers in test samples were back-calculated from the calibration curves and were expressed in terms of wt. (or arbitrary Units for phospho-protein markers) of protein per weight of tissue extract (for purified calibrators) or in terms of weight of crude control lysate protein per well (for lysate calibrators). Titrations of tumor extracts were carried out to determine the linearity of the assay response to sample dilution and to select the sample dilution that would be appropriate to use for each assay panel.
(§3) In general, the assay format was as follows, with minor alterations for specific assay panels as indicated in the assay protocols provided with each assay kit (supplied by Meso Scale Discovery, Rockville, Md.): (1) block MSD MULTI-SPOT® plate for 1 hour with appropriate MSD® blocking solution and wash; (2) add 25 μl assay diluent to each well, if specified; (3) add 25 μl calibrator, or sample (diluted as appropriate) to each well; (4) incubate with shaking for 1-3 hours (time as specified) and wash the well; (5) add 25 μl labeled detection antibody solution to each well; (6) incubate with shaking for 1-2 hours (time as specified) and wash the well; (7) add 150 μl MSD read buffer to each well; (8) read plate immediately on MSD SECTOR® Imager 6000 Reader (supplied by Meso Scale Discovery, Rockville, Md.).
(§4) Tumor tissue extracts were assayed at 5-10 μg/well total protein per well. Samples from each set were assayed on the same plate. […] The signals obtained are not normalized to any housekeeping tissue factor, which may serve to improve animal-to-animal reproducibility, but are normalized to total lysate protein.
(§5) Samples that were not treated with drug are designated as (−) and those treated with drug as (+).

[1] = tested on: A375 (GSKshRNA) xenograft; assay: Biomarker levels in A375 GSK3β shRNA melanoma xenograft tumor extracts (MSD multiplex immunoassay); type: in vivo, mice
Procedure: as §1, §2, §3, §4, §5

[2] = tested on: A375 (GSKshRNA) xenograft + doxycycline; assay: Biomarker levels in A375 shRNA + Dox melanoma xenograft tumor extracts (MSD multiplex immunoassay); type: in vivo, mice; conditions: A375 shRNA + Dox tumor extract, sorafenib (+), mean
Procedure: as §1, §2, §3, §4, §5

SKMEL5 xenograft = assay: Biomarker levels in SKMEL5 wt melanoma xenograft tumor extracts (MSD multiplex immunoassay); type: in vivo, mice
Procedure: as §1, §2, §3, §4, §5

[3] = tested on: SKMEL5 (active GSK3beta) xenograft; assay: Biomarker levels in SKMEL5 GSK3β+ (active GSK3beta) melanoma xenograft tumor extracts (MSD multiplex immunoassay); type: in vivo, mice
Procedure: as §1, §2, §3, §4, §5

786-0 xenograft = assay: Biomarker levels in 786-0 RCC xenograft tumor extracts (MSD multiplex immunoassay); type: in vivo, mice
Procedure: as §1, §2, §3, §4, §5

A375 cells = conditions: cited from earlier work
A498 xenograft = assay: Biomarker levels in A498 RCC xenograft tumor extracts (MSD multiplex immunoassay); type: in vivo, mice; conditions: A498 tumor extract, sunitinib (+), mean
Procedure: as §1, §2, §3, §4, §5

[4] = A375 control tumor extract, sorafenib (+), mean
[5] = wild type A375 tumors, sorafenib
[6] = A375 GSK3β shRNA tumor extract, sorafenib (+), mean
[7] = SKMEL5 wt tumor extract, sorafenib (+), mean
[8] = SKMEL5 GSK3β+ tumor extract, sorafenib (+), mean
[9] = 786-0 tumor extract, sunitinib (+), mean

Molecule `CNC(=O)c1cc(Oc2ccc(NC(=O)Nc3ccc(Cl)c(C(F)(F)F)c3)cc2)ccn1` [sorafenib] has an Akt (A375 xenograft; [4]) of 5.3 pg/ug pr, a GSK3β (A375 xenograft; [4]) of 84 pg/ug pr and a Rb (A375 xenograft; [4]) of 3.45 pg/ug pr. It also gave an SRFP-1 (A375 xenograft; [4]) of 1.30 pg/ug pr, a Wnt3A (A375 xenograft; [4]) of 23.2 pg/ug pr and a c-Met (A375 xenograft; [4]) of 0.23 ng/ug pr. For the same molecule, the “dephospho β-catenin” value (A375 xenograft; [4]) was 7.3 Units/ug pr, the phospho-Rb (A375 xenograft; [4]) was 0.21 Units/ug pr and the phospho-cMet (A375 xenograft; [4]) was 3.6 pg lys cal/ug pr. The phosphor-Akt (A375 xenograft; [4]) was 8.5 Units/ug pr, the β-catenin (A375 xenograft; [4]) was 32 pg/ug pr and the “change in total Rb levels with treatment” value (A375 xenograft; control A375, sorafenib, most samples at or below detection limits) was “increase in its levels”. The “change in phospho-GSK3β with treatment” value (A375 xenograft; [5]) was “no changes”, the “change in total GSK3β with treatment” value (A375 xenograft; [5]) was “no changes” and the Akt [1, 6] was 2.2 pg/ug pr. For the same molecule, the GSK3β [1, 6] was 50 pg/ug pr, the Rb [1, 6] was 0.96 pg/ug pr and the SRFP-1 [1, 6] was 0.35 pg/ug pr. For the same molecule, the VEGF [1, 6] was 8.5 pg/ug pr, the Wnt3A [1, 6] was 12.0 pg/ug pr and the c-Met [1, 6] was 0.16 ng/ug pr. The “dephospho β-catenin” value [1, 6] was 3.0 Units/ug pr, the phospho-GSK3β [1, 6] was 11.1 Units/ug pr and the phospho-Rb [1, 6] was 0.13 Units/ug pr. For the same molecule, the phospho-cMet [1, 6] was 1.8 pg lys cal/ug pr, the phosphor-Akt [1, 6] was 5.9 Units/ug pr and the β-catenin [1, 6] was 16 pg/ug pr. For the same molecule, the “change in levels of active β-catenin with treatment” value ([1]; shRNA transfected A375 tumors, sorafenib) was “reduction in levels of active β-catenin”, the Akt [2] was 1.6 pg/ug pr and the GSK3β [2] was 24 pg/ug pr. The Rb [2] was 0.27 pg/ug pr, the SRFP-1 [2] was 0.22 pg/ug pr and the VEGF [2] was 2.6 pg/ug pr. For the same molecule, the c-Met [2] was 0.10 ng/ug pr, the “dephospho β-catenin” value [2] was 2.9 Units/ug pr and the phospho-GSK3β [2] was 6.6 Units/ug pr. The phospho-Rb [2] was 0.10 Units/ug pr, the phospho-cMet [2] was 1.4 pg lys cal/ug pr and the phosphor-Akt [2] was 6.1 Units/ug pr. For the same molecule, the β-catenin [2] was 21 pg/ug pr, the “change in E-cadherin levels with treatment” value (SKMEL5 xenograft; SKMEL5 not transfected, sorafenib) was “no additional effect” and the “change in phospho-Akt levels with treatment” value (SKMEL5 xenograft; SKMEL5 tumors, sorafenib) was “unchanged phospho-Akt levels”. The “change in total Akt levels with treatment” value (SKMEL5 xenograft; SKMEL5 tumors, sorafenib) was “reduced levels of total Akt”, the Akt (SKMEL5 xenograft; [7]) was 22.3 pg/ug pr and the E-Cadherin (SKMEL5 xenograft; [7]) was 10.9 pg/ug pr. The GSK3β (SKMEL5 xenograft; [7]) was 162 pg/ug pr, the Rb (SKMEL5 xenograft; [7]) was 0.23 pg/ug pr and the SRFP-1 (SKMEL5 xenograft; [7]) was 0.08 pg/ug pr. For the same molecule, the VEGF (SKMEL5 xenograft; [7]) was 0.8 pg/ug pr, the Wnt3A (SKMEL5 xenograft; [7]) was 6.2 pg/ug pr and the c-Met (SKMEL5 xenograft; [7]) was 0.51 ng/ug pr. For the same molecule, the “dephospho β-catenin” value (SKMEL5 xenograft; [7]) was 7.4 Units/ug pr, the phospho-GSK3β (SKMEL5 xenograft; [7]) was 44.0 Units/ug pr and the phospho-Rb (SKMEL5 xenograft; [7]) was 0.62 Units/ug pr. The phospho-cMet (SKMEL5 xenograft; [7]) was 15.7 pg lys cal/ug pr, the β-catenin (SKMEL5 xenograft; [7]) was 31 pg/ug pr and the “change in active (dephospho) β-catenin with treatment” value (SKMEL5 xenograft; wt SKMEL5 tumors, sorafenib) was “decreased”. The “change in GSK3β phosphorylation with treatment” value (SKMEL5 xenograft; wt SKMEL5 tumors, sorafenib, total cellular protein) was “A reduction in GSK3β phosphorylation was not observed”, the Akt [3, 8] was 32.4 pg/ug pr and the E-Cadherin [3, 8] was 0.0 pg/ug pr. For the same molecule, the GSK3β [3, 8] was 88 pg/ug pr, the Rb [3, 8] was 0.63 pg/ug pr and the SRFP-1 [3, 8] was 0.22 pg/ug pr. For the same molecule, the VEGF [3, 8] was 7.2 pg/ug pr, the c-Met [3, 8] was 0.59 ng/ug pr and the “dephospho β-catenin” value [3, 8] was 12.6 Units/ug pr. For the same molecule, the phospho-GSK3β [3, 8] was 7.9 Units/ug pr, the phospho-Rb [3, 8] was 0.53 Units/ug pr and the phospho-cMet [3, 8] was 7.2 pg lys cal/ug pr. For the same molecule, the phosphor-Akt [3, 8] was 14.3 Units/ug pr, the β-catenin [3, 8] was 39 pg/ug pr and the “change in E-cadherin levels with treatment” value ([3]; SKMEL5 transfected (active GSK3β), sorafenib) was “no additional effect”. For the same molecule, the “change in VEGF levels with treatment” value (786-0 xenograft; 786-0, treated vs untreated) was “increased levels of VEGF”, the sorafenib-induced apoptosis (A375 cells; A375 cells, down-modulation of GSK3β with shRNA) was “increase sorafenib-induced apoptosis” and the sorafenib-induced apoptosis (A375 cells; wild type A375 cells, endogenous active GSK3β) was “resistance to sorafenib-induced apoptosis”.

`CCN(CC)CCNC(=O)c1c(C)[nH]c(/C=C2\C(=O)Nc3ccc(F)cc32)c1C` [sunitinib] gave an Akt (A498 xenograft) of 6.3 pg/ug pr, an E-Cadherin (A498 xenograft) of 0.0 pg/ug pr and a GSK3β (A498 xenograft) of 24 pg/ug pr. It also gave a Rb (A498 xenograft) of 0.00 pg/ug pr, an SRFP-1 (A498 xenograft) of 0.15 pg/ug pr and a VEGF (A498 xenograft) of 5.8 pg/ug pr. The Wnt3A (A498 xenograft) was 8.8 pg/ug pr, the c-Met (A498 xenograft) was 1.47 ng/ug pr and the “dephospho β-catenin” value (A498 xenograft) was 3.4 Units/ug pr. For the same molecule, the phospho-GSK3β (A498 xenograft) was 14.2 Units/ug pr, the phospho-Rb (A498 xenograft) was 0.08 Units/ug pr and the phospho-cMet (A498 xenograft) was 73.6 pg lys cal/ug pr. For the same molecule, the phosphor-Akt (A498 xenograft) was 59.1 Units/ug pr, the β-catenin (A498 xenograft) was 34 pg/ug pr and the Akt (786-0 xenograft; [9]) was 9.3 pg/ug pr. For the same molecule, the E-Cadherin (786-0 xenograft; [9]) was 0.1 pg/ug pr, the GSK3β (786-0 xenograft; [9]) was 61 pg/ug pr and the Rb (786-0 xenograft; [9]) was 6.48 pg/ug pr. The SRFP-1 (786-0 xenograft; [9]) was 0.23 pg/ug pr, the VEGF (786-0 xenograft; [9]) was 38.3 pg/ug pr and the Wnt3A (786-0 xenograft; [9]) was 11.8 pg/ug pr. The c-Met (786-0 xenograft; [9]) was 1.26 ng/ug pr, the “dephospho β-catenin” value (786-0 xenograft; [9]) was 23.3 Units/ug pr and the phospho-GSK3β (786-0 xenograft; [9]) was 5.9 Units/ug pr. The phospho-Rb (786-0 xenograft; [9]) was 0.14 Units/ug pr, the phospho-cMet (786-0 xenograft; [9]) was 31.5 pg lys cal/ug pr and the phosphor-Akt (786-0 xenograft; [9]) was 78.5 Units/ug pr. The β-catenin (786-0 xenograft; [9]) was 82 pg/ug pr.
